Data set [1] relates to vir gene expression in hypersensitive mutants (AB140, AB147). The experiment in a line: vir induction assay, β-galactosidase reporter, phenol hypersensitive mutants. Conditions: for vir inducing activity / hypersensitivity in mutants: hypersensitive mutants, e.g. AB140, versus wild-type. Format: cell-based, A. tumefaciens. As to the method: (§1) vir Induction Assay. A. tumefaciens strains were grown overnight at 27° C. to an optical density of about 0.3-0.6 at 600 nm (OD600) in LB medium supplemented win appropriate antibiotics. Cells were then pelleted by centrifugation and resuspended to an OD600 of 0 1 per ml in sterilized induction medium (ABIM. pH 5.5) supplemented with either 1% glucose or 1% glycerol with or without 0.1% arabinose (w/v). The verious phenolic compounds tested were dissolved in a minimal amount of DMSO in water as mM stocks, and diluted with ABIM to the desired concentration (final DMSO concentration was no greater than 0.1%). The bacteria were incubated with at 28° C. for 8-16 hours and subsequently assayed for β-galactosidase activity by the method of Miller, 1972. ED50 values for the inducers evaluated were estimated from such dose response plots. Each assay value reported is the mean of three replicates; error bar indicates one standard deviation from the mean. Data are representative of three similar independent experiments.
To ensure that the mutants hypersensitive to AS were a result of a change in the vir gene induction pathway rather than a mutation in the reporter plasmid pAC2, other methods to analyze vir gene induction and the virulence response were investigated. First, all nine mutants were transformed with pSW209 carrying a virB::lacZ reporter construct. The β-galactosidase activities of all strains were hypersensitive in an AS dose-response study. The observed changes are not due to some artifact of the reporter plasmids as the expression of VirB10, one of the proteins of the virB operon on its Ti plasmid, in cells of AB140 was detectable after induction with 0.3 μM AS. Wild-type cells required 1 μM AS to produce detectable VirB10. Thus, the mutants are hypersensitive to AS when assaying either the virB^P/nptII reporter, the virB::lacZ reporter, or directly assaying expression of VirB10 from the native viral promoter on the Ti plasmid.

The test system of data set [2] is vir gene expression in wild-type strain A348. Briefly: vir induction assay, β-galactosidase reporter, wild-type strain. It counts as cell-based, A. tumefaciens. To be noted: wild-type A348/pSW209. As to the method: as §1
The subject of another data set is vir gene expression. Briefly: vir gene expression inhibition, β-galactosidase (lacZ under vir promoter). Format: cell-based, A. tumefaciens. On the procedure: Vir Induction Assay. A. tumefaciens strains were grown overnight at 27° C. to an OD of 0.3-0.6 in LB medium supplemented with appropriate antibiotics. Cells were then pelleted by centrifugation and resuspended to an OD of 0.1 per ml in sterilized induction medium (ABIM, pH 5.5) supplemented with either 1% glucose or 1% glycerol. The various inducer and Inhibitor compounds tested were dissolved in a minimal amount of DMSO in water as mM stocks, and diluted with ABIM to the desired concentration (final DMSO concentration was no greater than 0.1%). The bacteria were incubated with at 28° C. for 8-16 hr and subsequently assayed for β-galactosidase activity by the method of Miller (1986). IC50 values for the Inhibitors evaluated were estimated from such dose response plots. Each assay value reported is the mean of three replicates; error bar indicates one standard deviation from the mean. Data are representative of three similar independent studies.
The capacity of 1 to inhibit vir gene expression was tested by monitoring β-galactosidase activity in an A. tumefaciens strain carrying wild-type vir induction genes and a lacZ gene under the control of a vir promoter (Hess et al., 1991). […] A more precise test for specificity was available via the utilization of a plasmid containing a virA gene, the putative AS receptor, which contitutively expressed the vir genes in the absence of AS. […] Therefore, the inhibition by 1 occurs upstrean, of VirA activation.

A further data set relates to occ regulon. The experiment in a line: occ regulon induction (specificity control). It counts as cell-based, A. tumefaciens. To be noted: same plasmid; data not shown.
Another data set can be described thus: physchem. Format: physicochemical. Conditions: buffer. As to the method: Curiously, 1 appears the most hydrolytically labile of this class of structures, with a measured t1/2<4 hr at pH 5.5, and […] at pH 7. […] Moreover, from estimates of the surface area per seedling, the concentration of 1 around the radicle of one-week-old maize seedlings should be between […] and 10 mM, depending on whether a 10 μ or a 100 μ volume element is used to define the surface hydration. […] This inhibitory zone readily explains the observed difficulty transforming this organ with the bacterium.

Data set [3] concerns leaf explants of Nicotiana tabacum cv Havana 425. Briefly: tobacco leaf tumor (virulence) assay. On the procedure: Virulence Assays The capacity of various strains of A. tumefaciens to induce tumors on leaf explants of Nicotiana tabacum cv Havana 425 was tested as described previously. Banta et al., 1994.
In this assay, bacteria and leaf explants are co-cultivated for two days at varying levels of AS and then transferred to antibiotic containing medium that stops bacterial growth but allows plant tumor growth. Banta et al., 1994. In the case of wild-type strain A348, some tumor formation is observed on the leaf explants co-cultivated in the absence of AS in the co-cultivation, as expected because of xenognostic phenols released from the wounded cells (FIG. 10). […] Importantly, the maximum number of tumors formed by both the wild-type strain and AB140 was approximately the same, consistent with the observation that AB140's hypersensitivity is not a result of simple overexpression of the vir genes.

Data set [4] concerns A. tumefaciens strain A348/pAC2 and AB140/pAC2. Briefly: kanamycin resistant growth with pAC2 (virB promoter/nptII). Conditions: for survival on induction plates plus kanamycin: A348/pAC2, 40 μg/ml kanamycin; for kanamycin resistant growth of AB140 compared with wild-type (inducer sensitivity): liquid medium, AB140/pAC2 vs A348/pAC2 (FIG. 9). Format: cell-based. As to the method:
Mutant Selection. […] Phenolic hypersensitive mutants were selected as follows. Individual colonies of A348/pAC2 were grown overnight in LB broth plus spectinomycin, and the progeny from each colony kept separate to ensure that each mutation was an individual event, not part of a clonal population. The bacteria were subsequently washed in ABIM medium, resuspended to an OD600 of approximately 0.1 and induced overnight in ABIM media plus 100 μM AS. The next day the cells had grown to an approximate OD600 of 1.0 and 2×10^5 to 2×10^6 bacteria were plated onto plates confining ABIM medium containing 10 μM AS and 40 μg/ml kanamycin. Colonies that grew on this selection medium were subsequently assayed for growth on plates containing kanamycin but no phenolic. Colonies that grew under these conditions are constitutive for kanamycin resistance and were not characterized further, while colonies that couldn't survive in this screen were characterized further.
The kanamycin resistance test of selected colonies in response to different doses of phenol was done in the following manner: after one night of induction in ABIM over a range of inducer concentrations, as described above, the bacteria were washed and subcultured into ABIM at a starting OD600 of approximately 0.1. The ABIM included phenolics at a range of concentrations between 0.1-1000 μM. At each concentration of inducer three cultures have kanamycin at a concentration of 20 μg/mL, while one culture has no kanamycin. After overnight culture the OD600 is determined and kanamycin resistant growth as a percentage of control is determined using the following calculation: [formula]

Data set [5] has as its system VirA expression by native PvirA. To be noted: with AS induction; cited from earlier work.
Another data set deals with VirB10 expression. Briefly: VirB10 immunoblot. It counts as cell-based, A. tumefaciens. As to the method: Immunoblot. Cultures of different strains were induced overnight in ABIM containing 1% glycerol and 0.1% arabinose and varying phenolic concentrations. Samples from each culture, containing an equivalent OD600, were denatured by boiling in sample buffer for 3-10 minutes, and 10 μL from each sample was loaded onto 10% acrylamide gels and separated via SDSpolyacrylamide gel electrophoresis (PAGE). Proteins were transferred from the acrylamide gel to nitrocellulose purchased from Schleicher and Schell (Keene, N. H.) by electrotransfer. VirB 10 expression was examined using immunoblot procedures and antibodies described in Beaupre et al., 1997.
(A western blot detects proteins with antibodies after separation by electrophoresis.)

The term half-life denotes how long it takes for the measured level to halve. The low end stands for rapid decline, the high end for slow decline.

Entries after “also recorded” stand apart in the source; their conditions may differ.

`COc1cc2c(c(OC)c1O)CCC2=O` [D-indanone, 5-hydroxy-4,6-dimethoxyindanone]: in [1], the “vir inducing activity / hypersensitivity in mutants” value is recorded as “hypersensitive”. Further, the “vir inducing activity (virB::lacZ β-galactosidase)” value in data set [2] is on record as “little changed”.

Regarding `COc1cc2c(cc1O)CCC2=O` [Z-indanone, 5-hydroxy-6-methoxy-1-indanone], the “vir inducing activity (virB::lacZ β-galactosidase)” value in data set [2] is “equivalent activity”.

For the molecule `COc1ccc2[nH]c(=O)oc2c1` [6-methoxy-2H-benzoxazolin-2(3H)-one], the “activity of decomposition product” value with vir gene expression (under the assay conditions) was “inactive”.

Take `COC(=O)/C=C/c1cc(OC)c2c(c1)C(C(=O)OC)C(c1ccc(O)c(OC)c1)O2` [(2R,3R)-(−)-trans-DDF, trans-dehydroferulate dimethylester, reference compound]: the “vir inducing activity (virB::lacZ β-galactosidase)” value in [2] was “all the inducing activity of the racemic mixture”; in [2] (listed as (−)-trans-DDF) it was “active”.

As for `COc1cc([C@@H]2C[C@H]2CO)ccc1O` (relative stereo) [(+)-trans-CP, trans-[3-(4-Hydroxy-3-methoxy-phenyl)-cyclopropyl]methanol], the “vir inducing activity / hypersensitivity in mutants” value in [1] is “all the inducing activity of the racemate”. The “vir inducing activity (virB::lacZ β-galactosidase)” value in data set [2] was “virtually all the activity of the trans racemate; also recorded: active”.

`COc1c(O)ccc2c1CCC2=O` [E-indanone, 5-hydroxy-4-methoxy-1-indanone]: the “vir inducing activity / hypersensitivity in mutants” value in data set [1] was “hypersensitive”. Further, the “vir inducing activity (virB::lacZ β-galactosidase)” value in data set [2] is on record as “equivalent activity”.

As for `COc1ccc2c(c1)OC(O)C(=O)N2OC` (centres unmarked) [compound 1], the “effect on induction of the occ regulon” value with occ regulon is “unaffected”. For the same molecule, on vir gene expression (based on decomposition rates during the 8 hr assay period), the “actual IC50” value is “nanomolar range”. Besides, in the data set on vir gene expression (expression induced by 100 uM acetosyringone, wild-type vir induction genes), the “inhibition of vir gene expression (β-galactosidase activity)” value was “strongly inhibits”. Further, the “effect on constitutively activated VirA strain (FIG. 2)” value in the data set on vir gene expression (virA G665D expressing vir genes in the absence of AS) is recorded as “functions independently”. Moreover, the half-life in the data set “physchem” (pH 5.5) is below 240 min; in “physchem” (pH 7), around 10 min.

`COc1cc(C(C)=O)cc(OC)c1O` [AS, Acetosyringone]: the “sensitivity to AS compared with wild-type strain A348” value in data set [1] (AB140, 0.1% arabinose present in induction medium) is “increased”. In addition, the “AS concentration for response compared with wild-type” value in data set [1] (AB147 class, absence of arabinose) is listed as “half-log lower concentration”. For the same molecule, in data set [1], the “vir inducing activity / hypersensitivity in mutants” value is given as “hypersensitive”. Besides, the “AS concentration for maximal capacity to induce tumors, relative to wild-type” value in data set [3] (hypersensitive mutant AB140 (FIG. 10)) is on record as “log order lower concentration”. Further, the “number of tumors formed per infected leaf explant” value in data set [3] (wild-type strain A348, increasing phenol in co-cultivation medium (FIG. 10)) was “significantly increased”. Further, the “survival on induction plates plus kanamycin” value in [4] (30 μM AS) was “killed”; in data set [4] (100 μM AS), “survive”. Also, the “kanamycin resistant growth of AB140 compared with wild-type (inducer sensitivity)” value in data set [4] is given as “one-half log lower concentration”. Also, the “induction of VirA expression by native PvirA” value in data set [5] is listed as around 8 fold. The “AS concentration giving detectable VirB10” value in the data set with VirB10 expression (cells of AB140) stood at 0.3 µM. The “AS concentration required to produce detectable VirB10” value in the data set on VirB10 expression (wild-type cells) amounted to 1 µM.

For `COc1cc(C(C)=O)ccc1O` [AV, acetovallinone], the “kanamycin resistant growth of AB140 compared with wild-type (inducer sensitivity)” value in data set [4] is reported as “not hypersensitive”.

Consider `COc1cc(C2CC2CO)ccc1O` (stereo not drawn) [cis-CP], for which, in data set [2], the “vir inducing activity (virB::lacZ β-galactosidase)” value is given as “equivalent activity”.

(Values after patent publication US20030188344A1 (priority 2000, published 2003).)
